Tested on: SARS-CoV-2, USA-WA1/2020
Assay: Antiviral assay: inhibition of SARS-CoV-2 cytopathic effect, neutral red
Assay type: cell-based
Settings: Severe acute respiratory syndrome coronavirus 2; Vero 76 cells, CPE inhibition by 50%, neutral red; i) and ii) are separate determinations; read-out: Anti-viral Assay (EC50)

N#C[C@@]1(c2ccc3c(N)ncnn23)O[C@H](CO)[C@@H](O)[C@H]1O [GS-441524]
EC50: 0.5 to 1.1 µM

Source: patent publication US11279727B2, “Anti-viral compounds and methods of use” (Metro International Biotech, LLC, priority 2020, dated 2022)
